Measurements: patent USRE39149E1, “Method of administering azithromycin” (Pfizer Inc., priority 1994, dated 2006)

Assay: Stability of azithromycin at acid pH / in stomach juices
Assay type: physicochemical
Description: Thus, without being bound to any mechanism of action, it is surprising that rapid disintegration in the GI tract appears to be of importance to the invention.

CC[C@H]1OC(=O)[C@H](C)[C@@H](O[C@H]2C[C@@](C)(OC)[C@@H](O)[C@H](C)O2)[C@H](C)[C@@H](O[C@@H]2O[C@H](C)C[C@H](N(C)C)[C@H]2O)[C@](C)(O)C[C@@H](C)CN(C)[C@H](C)[C@@H](O)[C@]1(C)O [azithromycin, 9a-aza-9a-methyl-9-deoxo-9a-homoerythromycin A]
stability at low (acid) pH (on the order of the pH of stomach acid): unstable | stability on exposure to stomach juices (stomach juices, acid pH): breaks down
